Measurements: patent publication US8952024B2, “Herbicidal pyrimidone derivatives” (E I du Pont de Nemours and Company, priority 2009, dated 2015)

Key:
Assay type in all cases: in vivo
[1] = system: chickweed (Stellaria media); assay: Test B postemergence plant response; conditions: for Chickweed plant response rating (0 to 100 scale): 62 g ai/ha, 0 is no effect, 13 to 15 days
How it was run: (§1)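 Visual ratings from 0 (no effect) to 100 (complete control), made against controls 13–15 days after treatment, kept in a greenhouse. Compounds were applied postemergence to potted plants at the 1- to 4-leaf stage (2–18 cm).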

[2] = system: windgrass (Apera spica-venti); assay: Test B postemergence plant response; conditions: for Windgrass plant response rating (0 to 100 scale): 62 g ai/ha, 0 is no effect, 13 to 15 days
How it was run: as §1

[3] = system: winter barley (Hordeum vulgare); assay: Test B postemergence plant response; conditions: for Barley plant response rating (0 to 100 scale): 62 g ai/ha, 0 is no effect, 13 to 15 days
How it was run: as §1

[4] = system: canarygrass (Phalaris minor); assay: Test B postemergence plant response; conditions: for Canarygrass plant response rating (0 to 100 scale): 62 g ai/ha, 0 is no effect, 13 to 15 days
How it was run: as §1

[5] = system: pigweed (Amaranthus retroflexus); assay: Test B pre-/postemergence plant response; conditions: for Pigweed plant response rating (0 to 100 scale): 62 g ai/ha, 0 is no effect, 13 to 15 days
How it was run: (§2)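 Test compounds, formulated in a non-phytotoxic solvent mixture with surfactant, are applied to the soil surface (loam and sand blend) right after seeding, or sprayed over plants at the 1- to 4-leaf stage grown in peat moss/vermiculite medium. After 13 to 15 days under glasshouse conditions, each species is scored visually from 0 (no effect) to 100 (complete control) against controls.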

wild oat (Avena fatua) = assay: Test B pre-/postemergence plant response; conditions: for Oat, Wild plant response rating (0 to 100 scale): 62 g ai/ha, 0 is no effect, 13 to 15 days
How it was run: as §2

[6] = system: umbrella sedge (Cyperus difformis); assay: Test B flooded paddy test; conditions: for Plant response rating, Flood, Sedge, Umbrella: 250 g ai/ha, flooded paddy test, visual rating on 0 to 100 scale (0 no effect, 100 complete control) after 13 to 15 days; for Plant response rating, Sedge, Umbrella: Flood (flooded paddy test), 13 to 15 days; for Sedge, Umbrella plant response rating: Flood, 31 g ai/ha, scale 0 to 100 (0 no effect, 100 complete control)
How it was run: (§3)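 Ratings are visual, 0–100 (100 = complete control), taken versus untreated controls 13 to 15 days after treatment in the greenhouse. Compound went straight into paddy water held 3 cm above soil, applied to 2-leaf-stage plants of four species.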

rice (Oryza sativa) = assay: Test B flooded paddy test; conditions: for Plant response rating, Flood, Rice: 250 g ai/ha, flooded paddy test, visual rating on 0 to 100 scale (0 no effect, 100 complete control) after 13 to 15 days; for Plant response rating, Rice: Flood (flooded paddy test), 13 to 15 days; for Rice plant response rating: Flood, 31 g ai/ha, scale 0 to 100 (0 no effect, 100 complete control)
How it was run: as §3

[7] = system: barnyardgrass (Echinochloa crus-galli); assay: Test B flooded paddy test; conditions: for Plant response rating, Flood, Barnyardgrass: 250 g ai/ha, flooded paddy test, visual rating on 0 to 100 scale (0 no effect, 100 complete control) after 13 to 15 days; for Plant response rating, Barnyardgrass: Flood (flooded paddy test), 13 to 15 days; for Barnyardgrass plant response rating: Flood, 31 g ai/ha, scale 0 to 100 (0 no effect, 100 complete control)
How it was run: as §3

[8] = system: ducksalad (Heteranthera limosa); assay: Test B flooded paddy test; conditions: for Plant response rating, Flood, Ducksalad: 250 g ai/ha, flooded paddy test, visual rating on 0 to 100 scale (0 no effect, 100 complete control) after 13 to 15 days; for Plant response rating, Ducksalad: Flood (flooded paddy test), 13 to 15 days; for Ducksalad plant response rating: Flood, 31 g ai/ha, scale 0 to 100 (0 no effect, 100 complete control)
How it was run: as §3

[9] = 31 g ai/ha, postemergence, scale 0 to 100, 0 is no effect, 100 is complete control
[10] = postemergence, 100 is complete control
[11] = Postemergence, 125 g ai/ha, visual rating after 13 to 15 days, scale 0 (no effect) to 100 (complete control)
[12] = Postemergence, 250 g ai/ha, scale 0 to 100 (0 no effect, 100 complete control)
[13] = 62 g ai/ha, scale of 0 to 100 where 0 is no effect and 100 is complete control
[14] = 125 g ai/ha, scale 0 to 100, 0 is no effect, 100 is complete control

Structure (SMILES) | Plant response rating, Chickweed [1, 9] | Chickweed plant response rating (0 to 100 scale) [1, 10] | Plant response rating, Chickweed [1, 11] | Plant response rating, Chickweed [1, 12] | Plant response rating, Windgrass [2, 9] | Windgrass plant response rating (0 to 100 scale) [2, 10] | Plant response rating, Windgrass [2, 12] | Plant response rating, Barley [3, 9] | Barley plant response rating (0 to 100 scale) [3, 10] | Plant response rating, Barley [3, 11] | Plant response rating, Barley [3, 12] | Plant response rating, Canarygrass [4, 9] | Canarygrass plant response rating (0 to 100 scale) [4, 10] | Plant response rating, Canarygrass [4, 11] | Plant response rating, Canarygrass [4, 12] | Plant response rating, Pigweed [5, 9] | Pigweed plant response rating (0 to 100 scale) [5, 10] | Plant response rating, Pigweed [5, 12] | Plant response rating, Oat, Wild (wild oat (Avena fatua); [9]) | Oat, Wild plant response rating (0 to 100 scale) (wild oat (Avena fatua); [10]) | other results
O=C1CCCC(O)=C1C(=O)c1cnc(C2CCCC2)n(-c2ccccc2)c1=O [Compound 92] | 90 | 95 | 98 | 100 | 0 | 50 | 90 | 0 | 0 | 0 | 0 | 0 | 0 | 0 | 0 | 90 | 100 | 100 | 0 | 5 | Plant response rating, Oat, Wild (wild oat (Avena fatua); [12]): 10; Plant response rating, Flood, Sedge, Umbrella [6]: 85; Plant response rating, Sedge, Umbrella [6, 13]: 65; Plant response rating, Sedge, Umbrella [6, 14]: 70; Sedge, Umbrella plant response rating [6]: 65; Plant response rating, Flood, Rice (rice (Oryza sativa)): 40; Plant response rating, Rice (rice (Oryza sativa); [13]): 0; Plant response rating, Rice (rice (Oryza sativa); [14]): 25; Rice plant response rating (rice (Oryza sativa)): 0; Plant response rating, Flood, Barnyardgrass [7]: 45; Plant response rating, Barnyardgrass [7, 13]: 0; Plant response rating, Barnyardgrass [7, 14]: 20; Barnyardgrass plant response rating [7]: 0; Plant response rating, Flood, Ducksalad [8]: 85; Plant response rating, Ducksalad [8, 13]: 30; Plant response rating, Ducksalad [8, 14]: 70; Ducksalad plant response rating [8]: 20
CCCn1c(-c2ccsc2)ncc(C(=O)C2=C(O)CCCC2=O)c1=O [Compound 93] | 80 | 80 | 95 | 98 | 5 | 10 | 55 | 0 | 0 | 5 | 5 | 0 | 0 | 5 | 10 | 90 | 95 | 100 | 0 | 0 | Plant response rating, Oat, Wild (wild oat (Avena fatua); [12]): 5; Plant response rating, Flood, Sedge, Umbrella [6]: 90; Plant response rating, Sedge, Umbrella [6, 13]: 75; Plant response rating, Sedge, Umbrella [6, 14]: 80; Sedge, Umbrella plant response rating [6]: 70; Plant response rating, Flood, Rice (rice (Oryza sativa)): 45; Plant response rating, Rice (rice (Oryza sativa); [13]): 15; Plant response rating, Rice (rice (Oryza sativa); [14]): 20; Rice plant response rating (rice (Oryza sativa)): 0; Plant response rating, Flood, Barnyardgrass [7]: 85; Plant response rating, Barnyardgrass [7, 13]: 60; Plant response rating, Barnyardgrass [7, 14]: 75; Barnyardgrass plant response rating [7]: 30; Plant response rating, Flood, Ducksalad [8]: 80; Plant response rating, Ducksalad [8, 13]: 55; Plant response rating, Ducksalad [8, 14]: 80; Ducksalad plant response rating [8]: 40
CCCCCCn1c(-c2ccccc2)ncc(C(=O)C2=C(O)CCCC2=O)c1=O [Compound 94] | 95 | 100 | 100 | 100 | 0 | 40 | 50 | 0 | 0 | 5 | 5 | 0 | 5 | 30 | 35 | 100 | 100 | 100 | 0 | 5 | Plant response rating, Oat, Wild (wild oat (Avena fatua); [12]): 30; Plant response rating, Flood, Sedge, Umbrella [6]: 85; Plant response rating, Sedge, Umbrella [6, 13]: 70; Plant response rating, Sedge, Umbrella [6, 14]: 85; Sedge, Umbrella plant response rating [6]: 20; Plant response rating, Flood, Rice (rice (Oryza sativa)): 35; Plant response rating, Rice (rice (Oryza sativa); [13]): 0; Plant response rating, Rice (rice (Oryza sativa); [14]): 20; Rice plant response rating (rice (Oryza sativa)): 0; Plant response rating, Flood, Barnyardgrass [7]: 60; Plant response rating, Barnyardgrass [7, 13]: 0; Plant response rating, Barnyardgrass [7, 14]: 40; Barnyardgrass plant response rating [7]: 0; Plant response rating, Flood, Ducksalad [8]: 30; Plant response rating, Ducksalad [8, 13]: 20; Plant response rating, Ducksalad [8, 14]: 25; Ducksalad plant response rating [8]: 0
CCOCCn1c(-c2ccccc2)ncc(C(=O)C2=C(O)CCCC2=O)c1=O [Compound 96] | 75 | 95 | 98 | 100 | 5 | 10 | 45 | 0 | 0 | 0 | 5 | 0 | 5 | 30 | 45 | 90 | 95 | 100 | 0 | 5 | Plant response rating, Oat, Wild (wild oat (Avena fatua); [12]): 30; Plant response rating, Flood, Sedge, Umbrella [6]: 90; Plant response rating, Sedge, Umbrella [6, 13]: 75; Plant response rating, Sedge, Umbrella [6, 14]: 85; Sedge, Umbrella plant response rating [6]: 50; Plant response rating, Flood, Rice (rice (Oryza sativa)): 15; Plant response rating, Rice (rice (Oryza sativa); [13]): 15; Plant response rating, Rice (rice (Oryza sativa); [14]): 15; Rice plant response rating (rice (Oryza sativa)): 10; Plant response rating, Flood, Barnyardgrass [7]: 85; Plant response rating, Barnyardgrass [7, 13]: 65; Plant response rating, Barnyardgrass [7, 14]: 80; Barnyardgrass plant response rating [7]: 60; Plant response rating, Flood, Ducksalad [8]: 75; Plant response rating, Ducksalad [8, 13]: 0; Plant response rating, Ducksalad [8, 14]: 50; Ducksalad plant response rating [8]: 0
